Results: patent publication US7544204B2, “Control of halitosis-generating and other microorganisms in the non-dental upper respiratory tract” (Valam Corporation, priority 2003, dated 2009)
Read-outs that look alike come from different tables or passages of the source.

Columns and labels:
Staphylococcus Aureus = settings: micromolar concentrations; gram positive (Staph aureus); illuminated in light box; cited from earlier work
Escherichia Coli = settings: micromolar concentrations; gram negative (E. Coli); illuminated in light box; cited from earlier work
Candida albicans = settings: methylene blue 450 and 500 microgram/mL; diode laser 664 nm, 275 J/cm fiber length, 400 mW, 687.5 seconds; immunosuppressed murine model; cited from earlier work
[1] = test system: Porphyromonas Gingivalis and Prevotella Intermedia; settings: for bactericidal effect without light exposure: methylene blue 0.075% and 0.1%, no red halogen light
P. gingivalis ATCC 33277 = assay: Lethal photosensitization of P. Gingivalis, colony count; format: cell-based, Porphyromonas Gingivalis
Protocol: • Suitable stain dosages for providing lethal sensitization of oral pathogens are determined in vitro by the following procedure. An objective is to determine the minimum duration of light exposure and minimum agent dilution required to achieve at least a 50% reduction in bacteria counts. Experimental tests are performed on two common pathogens using a continuously working, high intensity, red filtered halogen lamp. Red light from the filtered halogen lamp is transmitted through a flexible light guide to radiate downwardly onto petri dishes containing samples of live bacteria of species Porphyromonas Gingivalis and Prevotella Intermedia using the protocols described below. • Bacteria. Prevoltella Intermedia is isolated from patient sample material, identified in the laboratory using standard diagnostic test systems (Remel Inc., Lenexa, Kans., USA) and is maintained by twice-weekly subculture in thioglycollate medium (Becton Dickinson and Co, Sparks, Md., USA). P. gingivalis ATCC 33277 obtained from Remel Inc., is maintained by a twice-weekly subculture on CDC anaerobe blood agar (Becton Dickinson and Co, USA) and in thioglycollate medium (Becton Dickinson and Co, USA). • Light Source. […] The light output power density measured at 3 cm distance from the end of the light guide with filter is about 50 milliwatts/cm2. • Photosensitizer. […]

Row | SMILES | bacterial cell death by phototoxicity (Staphylococcus Aureus) | bacterial cell death by phototoxicity (Escherichia Coli) | eradication of Candida albicans (Candida albicans) | killing with duration of red-filtered light exposure ([1]; 1, 5 and 10 min with methylene blue 0.05%, 5 and 10 min with methylene blue 0.025%) | reduction in bacteria counts ([1]; light 5 min with methylene blue 0.025%, light 1 min with methylene blue 0.05% and higher) | killing of bacteria without halogen light ([1]; methylene blue 0.001% or 0.025%, without halogen light) | bactericidal effect in combination with red-filtered high-intensity light ([1]; methylene blue 0.01% or higher, exposure less than 10 minutes, accumulated energy 30 J/cm^2, both species) | survival rate (bacterial colony count) ([1]; methylene blue 0.05% and higher, red light exposure 10 or 20 minutes) [%] | reduction of bacteria, methylene blue alone ([1]; methylene blue 0.05%, without exposure to light) | bactericidal effect without light exposure [1] | bactericidal effect without light exposure ([1]; listed as Methylene blue) | bacterial killing without light exposure (P. gingivalis ATCC 33277; methylene blue 0.01%, without light exposure, P.gingivalis culture) | bactericidal effect on P.gingivalis (P. gingivalis ATCC 33277; methylene blue 0.1%)
1 | CN(C)c1ccc2nc3ccc(=[N+](C)C)cc-3sc2c1 [methylene blue] | bacterial cell death | bacterial cell death | totally eradicate | statistically significant increased killing with duration | Significant reduction in bacteria counts | nor concentrations of methylene blue of 0.001% or 0.025%, without halogen light, appeared to be effective in killing bacteria | bactericidal effect | ≤ 50 | insignificant | significantly bactericidal | significant bactericidal effect | statistically significant bacterial killing | bactericidal effect
2 | Cc1cc2nc3ccc(N(C)C)cc3[s+]c2cc1N.[Cl-] [toluidine blue O] | bacterial cell death | bacterial cell death | – | – | – | – | – | – | – | – | – | – | –
